# Reference: US9804168B2, “Biomarker discovery in complex biological fluid using bead or particle based libraries and diagnostic kits and therapeutics” (OPKO Pharmaceuticals, LLC, priority 2011, dated 2017)
# Tested on: anti-DNP antibody
# Assay: FACS bead model: DNP beads versus acetyl beads with anti-DNP antibody in sera
# Format: binding
# Conditions: FIG. 40; 1,000 ug/mL sera concentration
# Protocol: The Mean fluorescence intensity (MFI) separation was greatest at the higher dilution of 1,000 ug/mL sera.
compound,measurement,value
O=[N+]([O-])c1ccc(NCCO)c([N+](=O)[O-])c1 [ethanolamine-DNP],competition with binding of DNP (on a plate) to anti-DNP antibody,direct competition
